Test results as given in patent US9415039B2, “Disubstituted 3,4-diamino-3-cyclobutene-1,2-dione compounds for use in the treatment of chemokine-mediated diseases” (GALDERMA RESEARCH & DEVELOPMENT, priority 2011, dated 2016).

Assays:
[1] = target: T1, CXCR1 receptor (Homo sapiens, UniProt P25024); assay: β-arrestin 2 recruitment test after CXCL8 activation, U2OS hCXCR1 β-arrestin cells; format: cell-based; details: stimulation with CXCL8 (10 nM), read-out: CXCR1 (nM), IC50 = half inhibition concentration
T1 construct: β-galactosidase enzyme-complementation fragment (PathHunter system); host or cells: U2OS
T1 sequence (P25024 1-350): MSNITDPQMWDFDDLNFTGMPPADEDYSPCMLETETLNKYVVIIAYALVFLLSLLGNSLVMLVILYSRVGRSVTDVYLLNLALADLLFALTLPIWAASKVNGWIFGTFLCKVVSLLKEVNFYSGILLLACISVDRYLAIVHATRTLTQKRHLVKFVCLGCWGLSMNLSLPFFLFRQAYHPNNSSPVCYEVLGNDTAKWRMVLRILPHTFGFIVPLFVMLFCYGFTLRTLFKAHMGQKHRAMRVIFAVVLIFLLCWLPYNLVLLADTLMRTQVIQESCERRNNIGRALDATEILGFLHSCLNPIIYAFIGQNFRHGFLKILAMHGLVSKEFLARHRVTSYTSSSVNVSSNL
Experimental: (§1) The in vitro affinity of the compounds of the present invention for the CXCR1 and CXCR2 receptors was determined on a functional test of the β-arrestin recruitment after receptor activation type.
(§2) In order to evaluate the direct interaction of the CXCR2 or CXCR1 receptor with β-arrestin 2, a β-arrestin 2 recruitment test for CXCR2 or CXCR1 based on β-galactosidase enzyme complementation (Olson K R, Eglen R M. Beta galactosidase complementation: a cell-based luminescent assay platform for drug discovery. Assay Drug Dev Technol. 2007 February; 5(1); 137-44), as established by DiscoveRx Corporation was used. The stimulation of these two cell lines with CXCL8 (10 nM) induces β-arrestin 2 recruitment, as indicated by a significant increase in the induction factor. […]
(§3) “PathHunter HEK293-CXCR2” or “U2OS hCXCR1 β-arrestin” cells (DiscoveRx Corporation) were seeded overnight at 10 000 cells/well (384-well format) in 20 μl of Opti MEM I medium. […] After incubation for 60 min at ambient temperature, the […] during the β-arrestin-CXCR2 interaction was measured for 0.3 s in an Envision 2102 Multilabel Reader (PerkinElmer Life and Analytical Sciences). The data were analyzed by means of a non-linear curve procedure using the XLFit4 exploitation software (IDBS) and the IC50 values were determined.

[2] = target: T2, CXCR2 receptor (Homo sapiens, UniProt P25025); assay: β-arrestin 2 recruitment test after CXCL8 activation, PathHunter HEK293-CXCR2 cells; format: cell-based; details: stimulation with CXCL8 (10 nM), read-out: CXCR2 (nM), IC50 = half inhibition concentration
T2 construct: β-galactosidase enzyme-complementation fragment (PathHunter system); host or cells: HEK293
T2 sequence (P25025 1-360): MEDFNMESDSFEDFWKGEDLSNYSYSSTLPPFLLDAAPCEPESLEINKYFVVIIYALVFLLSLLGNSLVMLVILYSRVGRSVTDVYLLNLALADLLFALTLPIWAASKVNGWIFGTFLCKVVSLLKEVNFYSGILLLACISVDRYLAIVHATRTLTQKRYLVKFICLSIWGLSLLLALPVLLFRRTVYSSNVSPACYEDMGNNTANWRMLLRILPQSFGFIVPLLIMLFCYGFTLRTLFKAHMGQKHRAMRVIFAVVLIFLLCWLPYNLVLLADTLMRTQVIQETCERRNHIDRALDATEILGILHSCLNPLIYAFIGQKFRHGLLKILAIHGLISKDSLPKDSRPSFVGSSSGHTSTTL
Experimental: as §1, §2, §3

Row | Compound | IC50 [1] | IC50 [2] | melting point
1 | Cc1ccc(C(Nc2c(Nc3cccc(C(=O)N(C)C)c3O)c(=O)c2=O)C2CCOCC2)o1 (stereo not drawn) [Example 1, 2-hydroxy-N,N-dimethyl-3-(2-{[(5-methylfuran-2-yl)-(tetrahydropyran-4-yl)methyl]amino}-3,4-dioxocyclobut-1-enylamino)benzamide] | 5440 nM | 212 nM | 137 to 140 °C
2 | Cc1ccc(C(Nc2c(Nc3cccc(C(=O)N(C)C)c3O)c(=O)c2=O)C2CCSCC2)o1 (stereo not drawn) [Example 2, 2-hydroxy-N,N-dimethyl-3-(2-{[(5-methylfuran-2-yl)-(tetrahydrothiopyran-4-yl)methyl]amino}-3,4-dioxocyclobut-1-enylamino)benzamide] | 3390 nM | 111 nM | 173 to 175 °C
